Test results: ChEMBL document CHEMBL1201862, “PubChem BioAssay data set” (2004)
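Grown in 96-well plates, cells were treated for 48 hours with each compound at five concentrations. Insufficient inhibition: endpoint recorded as highest concentration tested. GI50 marks 50% less growth.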 Active and inactive are the calls of the source. No stated cut-off is given here; in the data, active = GI50 up to about 1.1 µM and inactive = higher.

Legend:
Assay in all cases: DTP human tumour cell line panel, 48 h
CAKI-1 = system: CAKI-1
SR = system: SR
MOLT-4 = system: MOLT-4
SN12C = system: SN12C
SK-OV-3 = system: SK-OV-3
MDA-MB-435 = system: MDA-MB-435
ACHN = system: ACHN
A498 = system: A498
K562 = system: K562
SF-295 = system: SF-295
RPMI-8226 = system: RPMI-8226
NCI/ADR-RES = system: NCI/ADR-RES
HT-29 = system: HT-29
SF-539 = system: SF-539
HL-60 = system: HL-60
HCT-15 = system: HCT-15
LOX IMVI = system: LOX IMVI
CCRF-CEM = system: CCRF-CEM
HCC 2998 = system: HCC 2998
786-0 = system: 786-0

Structure (SMILES) | GI50 (CAKI-1) | GI50 (SR) | GI50 (MOLT-4) | GI50 (SN12C) | GI50 (SK-OV-3) | GI50 (MDA-MB-435) | GI50 (ACHN) | GI50 (A498) | GI50 (K562) | GI50 (SF-295) | GI50 (RPMI-8226) | GI50 (NCI/ADR-RES) | GI50 (HT-29) | GI50 (SF-539) | GI50 (HL-60) | GI50 (HCT-15) [µM] | GI50 (LOX IMVI) | GI50 (CCRF-CEM) | GI50 (HCC 2998) | GI50 (786-0)
Nc1ccc(S(=O)(=O)c2ccc(/N=[N+](\[O-])c3ccc(S(=O)(=O)c4ccc(N)cc4)cc3)cc2)cc1 | 86.9 µM (inactive) | > 61.4 µM (inactive) | > 100 µM (inactive) | > 68.9 µM (inactive) | 24.9 µM (inactive) | > 100 µM (inactive) | > 60.5 µM (inactive) | 30.8 µM (inactive) | > 100 µM (inactive) | 22.1 µM (inactive) | > 100 µM (inactive) | > 74.3 µM (inactive) | > 100 µM (inactive) | 18.9 µM (inactive) | > 100 µM (inactive) | > 100 | > 60.7 µM (inactive) | > 100 µM (inactive) | > 100 µM (inactive) | 18.5 µM (inactive)
NS(=O)(=O)c1nnc(NC(=O)Nc2ccc(Cl)c(Cl)c2)s1 | 25.9 µM (inactive) | 21.9 µM (inactive) | 32.5 µM (inactive) | 19.3 µM (inactive) | 20.6 µM (inactive) | 20.3 µM (inactive) | 34.2 µM (inactive) | 22 µM (inactive) | 31.3 µM (inactive) | 31.7 µM (inactive) | 17.5 µM (inactive) | 21 µM (inactive) | 16.7 µM (inactive) | 19 µM (inactive) | 28.8 µM (inactive) | 21.2 | 18.2 µM (inactive) | 14.3 µM (inactive) | 18.7 µM (inactive) | 24.3 µM (inactive)
COc1cc(/C=N/c2ccc(S(N)(=O)=O)cc2)cc(OC)c1 | > 50 µM (inactive) | 16.4 µM (inactive) | 36.9 µM (inactive) | > 50 µM (inactive) | > 50 µM (inactive) | 14 µM (inactive) | > 50 µM (inactive) | > 50 µM (inactive) | 42.1 µM (inactive) | > 50 µM (inactive) | 28 µM (inactive) | > 50 µM (inactive) | > 50 µM (inactive) | 25.3 µM (inactive) | 13.6 µM (inactive) | 29.6 | 46.6 µM (inactive) | 34.3 µM (inactive) | > 50 µM (inactive) | > 50 µM (inactive)
O=C(C/C(=N/O)c1cc(-c2ccccc2)no1)c1ccccc1 | 36.6 µM (inactive) | 13.6 µM (inactive) | 31.8 µM (inactive) | 38.7 µM (inactive) | 17.1 µM (inactive) | > 100 µM (inactive) | 45 µM (inactive) | > 100 µM (inactive) | 41.3 µM (inactive) | 33.7 µM (inactive) | > 100 µM (inactive) | 25.8 µM (inactive) | > 100 µM (inactive) | 19.3 µM (inactive) | 29 µM (inactive) | > 100 | 36.4 µM (inactive) | > 100 µM (inactive) | > 100 µM (inactive) | 22.1 µM (inactive)
COC(=O)C1(Cc2ccc(C)cc2)Cc2c(C)cccc2C1=O (stereo not given) | 25.7 µM (inactive) | 7.24 µM (inactive) | 20 µM (inactive) | 18.3 µM (inactive) | 14.5 µM (inactive) | 3.08 µM (inactive) | 26.5 µM (inactive) | 13.7 µM (inactive) | 8.04 µM (inactive) | 15.4 µM (inactive) | 15.1 µM (inactive) | 14.9 µM (inactive) | 8.83 µM (inactive) | 16.4 µM (inactive) | 5.6 µM (inactive) | 14.2 | 18.9 µM (inactive) | 82 µM (inactive) | 16.8 µM (inactive) | 20.5 µM (inactive)
O=c1c2cc(I)ccc2nc(Sc2ccc([N+](=O)[O-])cc2[N+](=O)[O-])n1Cc1ccccc1 | 2.64 µM (inactive) | 0.394 µM (active) | 1.39 µM (inactive) | 1.46 µM (inactive) | 8.13 µM (inactive) | 1.82 µM (inactive) | 8.73 µM (inactive) | 7.03 µM (inactive) | 1.78 µM (inactive) | 5.92 µM (inactive) | 1.74 µM (inactive) | 1.83 µM (inactive) | 3.24 µM (inactive) | 2.25 µM (inactive) | 1.83 µM (inactive) | 1.61 | 1.46 µM (inactive) | 0.159 µM (active) | 2.92 µM (inactive) | 0.815 µM (active)
O=[N+]([O-])c1ccc(CSc2nncc3[nH]cnc23)cc1 | > 100 µM (inactive) | > 100 µM (inactive) | > 100 µM (inactive) | > 100 µM (inactive) | > 100 µM (inactive) | 93.1 µM (inactive) | 77.4 µM (inactive) | > 100 µM (inactive) | 84.9 µM (inactive) | 65.2 µM (inactive) | > 100 µM (inactive) | > 100 µM (inactive) | > 100 µM (inactive) | > 100 µM (inactive) | > 100 µM (inactive) | > 100 | > 100 µM (inactive) | > 100 µM (inactive) | > 100 µM (inactive) | > 100 µM (inactive)
COc1cc2c3c(cc(Cl)nc3c1OC)C(O)(CC(=O)c1ccccc1)C(=O)N2 (stereo not given) | 17.5 µM (inactive) | 4.65 µM (inactive) | 1.71 µM (inactive) | 6.79 µM (inactive) | 17.4 µM (inactive) | 1.93 µM (inactive) | 14.9 µM (inactive) | 18.4 µM (inactive) | 4.79 µM (inactive) | 17.9 µM (inactive) | 2.55 µM (inactive) | 24.8 µM (inactive) | 21.7 µM (inactive) | 0.995 µM (active) | 1.49 µM (inactive) | 21.5 | 7.01 µM (inactive) | 1.64 µM (inactive) | 18.5 µM (inactive) | 8.93 µM (inactive)
O=C(C=P(c1ccccc1)(c1ccccc1)c1ccccc1)c1ccc(-c2cccc([N+](=O)[O-])c2)s1 | 35.2 µM (inactive) | 42.5 µM (inactive) | 20.6 µM (inactive) | 68.7 µM (inactive) | 36.1 µM (inactive) | 51.5 µM (inactive) | 45.4 µM (inactive) | 35.2 µM (inactive) | 37 µM (inactive) | 47.4 µM (inactive) | 19.5 µM (inactive) | 25.8 µM (inactive) | 29.6 µM (inactive) | 63.4 µM (inactive) | 26 µM (inactive) | 41.1 | 67 µM (inactive) | 30.6 µM (inactive) | 51.1 µM (inactive) | > 100 µM (inactive)
C[C@H]1CC(=O)[C@@]2(O)C#C/C=C\C#C[C@@H]3Nc4c(cc(O)c5c4C(=O)c4ccccc4C5=O)[C@]24O[C@]314 | < 0.001 µM (active) | 0.00256 µM (active) | < 0.001 µM (active) | 0.00296 µM (active) | 0.0171 µM (active) | 0.0509 µM (active) | < 0.001 µM (active) | 0.0586 µM (active) | 0.0118 µM (active) | 0.0161 µM (active) | 0.00356 µM (active) | 0.00914 µM (active) | 0.0619 µM (active) | 0.00316 µM (active) | < 0.001 µM (active) | 0.0248 | 0.0175 µM (active) | 0.00106 µM (active) | 0.00647 µM (active) | 0.0128 µM (active)
C[N+](C)(C)/N=C\c1ccc(O)c(O)c1 | > 100 µM (inactive) | > 100 µM (inactive) | > 100 µM (inactive) | > 100 µM (inactive) | > 100 µM (inactive) | > 100 µM (inactive) | > 100 µM (inactive) | > 100 µM (inactive) | > 100 µM (inactive) | > 100 µM (inactive) | > 100 µM (inactive) | > 100 µM (inactive) | > 100 µM (inactive) | > 100 µM (inactive) | > 100 µM (inactive) | > 100 | > 100 µM (inactive) | > 100 µM (inactive) | > 100 µM (inactive) | > 100 µM (inactive)
CN(CCNC(=O)c1c[nH]c2c1ccc1ccccc12)CCNC(=O)c1c[nH]c2c1ccc1ccccc12 | 2.56 µM (inactive) | 2.08 µM (inactive) | 2.01 µM (inactive) | 3.39 µM (inactive) | 4.23 µM (inactive) | 1.84 µM (inactive) | 1.86 µM (inactive) | 1.53 µM (inactive) | 2.18 µM (inactive) | 2.22 µM (inactive) | 3.15 µM (inactive) | 4.81 µM (inactive) | 1.87 µM (inactive) | 1.15 µM (inactive) | 1.95 µM (inactive) | 1.92 | 1.64 µM (inactive) | 1.73 µM (inactive) | 1.41 µM (inactive) | 1.82 µM (inactive)
O=C(Nc1ccccc1)N1CCNC1=S | > 100 µM (inactive) | 69.2 µM (inactive) | > 100 µM (inactive) | > 100 µM (inactive) | > 100 µM (inactive) | > 100 µM (inactive) | > 100 µM (inactive) | > 100 µM (inactive) | > 100 µM (inactive) | > 100 µM (inactive) | > 100 µM (inactive) | > 100 µM (inactive) | > 100 µM (inactive) | > 100 µM (inactive) | > 100 µM (inactive) | > 100 | > 100 µM (inactive) | > 100 µM (inactive) | 15.5 µM (inactive) | > 100 µM (inactive)
Cc1nn(-c2ccccc2)c(C)c1/C=N/NC(=O)c1sc(=S)n(-c2ccc(Cl)cc2)c1N | 2.76 µM (inactive) | 3.73 µM (inactive) | 8.2 µM (inactive) | 12.2 µM (inactive) | 3.87 µM (inactive) | 9.64 µM (inactive) | 4.18 µM (inactive) | 6.18 µM (inactive) | 3.52 µM (inactive) | 2.71 µM (inactive) | 2.67 µM (inactive) | 6.21 µM (inactive) | 5.05 µM (inactive) | 3.64 µM (inactive) | 8.17 µM (inactive) | 6.56 | 3.27 µM (inactive) | 6.01 µM (inactive) | 18.8 µM (inactive) | 3.89 µM (inactive)
